The text below walks through data of patent publication US11478474B2, “2-(3′-(hydroxymethyl)-1-methyl-5-((5-(2-methyl-4-(oxetan-3-yl)piperazin-1-yl)pyridin-2-yl)amino)-6-oxo-1,6-dihydro-[3,4′-bipyridin]-2′-yl)-7,7-dimethyl-7,8-dihydro-2H-cyclopenta[4,5]pyrrolo[1,2-a]pyrazin-1(6H)-one as a BTK inhibitor” (HUTCHISON MEDIPHARMA LIMITED, priority 2020, dated 2022).

One experiment has as its target BTK recombinant protein (Homo sapiens (Human), UniProt Q06187). The experiment is described as follows: Determination of biochemical BTK (Z'-LYTE kinase assay). From the text: Example 2 Determination of Biochemical BTK
(§1) 1. Reagents and Materials
BTK recombinant protein: Invitrogen, Cat #PV3363;
Z′-LYTE® kinase test kit-tyrosine 1 peptide: Invitrogen, Cat #PV3190;
Z′-LYTE® biochemical assay employs a fluorescence resonance energy transfer (FRET)—based, coupled-enzyme format and is based on the differential sensitivity of phosphorylated and non-phosphorylated peptides to proteolytic cleavage. Both ends of the short peptide substrate are labeled with two fluorescent groups to form a FRET paired combination. In the primary reaction (the Kinase Reaction), the kinase transfers the γ-phosphate of ATP to a single […] residue on the short peptide substrate. In the secondary reaction (the development reaction), the non-phosphorylated short peptides were recognized and cleaved by a site-specific protease (the development reagent). Phosphorylated short peptides can resist such cleavage. Cleavage of short peptides can disrupt the donor (such as coumarin) and receptor fluorophores (fluorescein) on the short peptides, while the phosphorylated short peptides can maintain FRET. The calculation method of the ratio is as follows, and the ratio of the respective emission signals generated by the donor fluorophores emitted (after excitation at 400 nm) to the receptors is calculated. Emission signal ratio=emitted light by coumarin (445 nm)/emitted light by fluorescein (520 nm). If the FRET short peptide is phosphorylated (such as no kinase inhibitor), the emitted light ratio will remain in a lower level. If the FRET short peptide is non-phosphorylated (such as kinase inhibitor), the emitted light ratio will be in a higher level. In this way, the inhibitory effects of different compound inhibitors on BTK kinase activity would be distinguished.
The experiment were carried out according to the instructions of the Z′-LYTE® kinase test kit-tyrosine 1 peptide. Reagent preparation: 1.33× kinase buffer: 5× kinase buffer was diluted with water to 1.33× kinase buffer; an enzyme solution: the kinase was dissolved in 1.33× kinase buffer with the final working concentration being 3.32 nM; a short peptide solution: a short peptide stock solution (1 mM dissolved in DMSO) was dissolved in 1.33× kinase buffer with the final working concentration being 2 μM; Z′-LYTE Tyr01 phosphorylated short peptide solution, 0.6 μl of stock solution (1 mM dissolved in DMSO) was dissolved in 149.4 μl of 1.33× kinase buffer; an ATP solution: an ATP stock solution (10 mM aqueous solution) was dissolved in 1.33× kinase buffer with the final working concentration being 32 μM; a color-developing solution: color-developing solution B was dissolved in color-developing buffer with the final working concentration being 1× color-developing solution; 4× compound preparation: the compound was diluted in 3-fold gradient concentration to finally obtain 4% DMSO aqueous solution containing different concentrations of the compound, with the final working concentration being 3000, 1000, 333.33, 111.11, 37.04, 12.35, 4.12, 1.37 nM, 8 concentration points in total.
Specific steps of the experiment: In the experiment, there were three control groups, each with 8 replicate wells, which were C1 100% inhibition group (no ATP), C2 0% inhibition group (with ATP), and C3 100% phosphorylation group, respectively. 2.5 μl of serially diluted compound was added to each well of a 384-well plate, with double replicate wells, and 4% DMSO solution was added to wells C1, C2, and C3. After that, except for wells C3, 2.5 μl of BTK enzyme solution was added to each remaining well, which was left to stand at 4° C. for 30 minutes. After that, except for wells C3, 2.5 μl of short peptide solution was added to each well, and 5 μl of phosphorylated short peptide solution was added to each of wells C3. 2.5 μl of 1.33× kinase buffer was added to each of wells C1 and C3, and 2.5 μl of ATP solution was added to each of the remaining wells. […]

In experiment [1] the target is phosphorylated BTK in Ramos cells (Homo sapiens (Human), UniProt Q06187). The experiment is described as follows: Determination of phosphorylated BTK in Ramos cells (BTK phospho-Y223 HTRF). Type of experiment: cell-based. Particulars: anti-human IgM + hydrogen peroxide stimulation. The procedure: Determination of Phosphorylated BTK in Ramos Cells
as §1
Ramos cells: Ramos cells were purchased from American Standard Biological Collection Center ATCC Cell Bank, PRMI 1640 medium containing L-glutamine, 1.5 g/L of sodium bicarbonate, 2.383 g/L of HEPES solution, 0.11 g/L of sodium pyruvate and 4.5 g/L of glucose was used, added 10% fetal bovine serum FBS, and placed in a 5% CO2, 37° C. cell incubator for normal culture;
Phosphorylated BTK HTRF detection kit (BTK phospho-Y223 HTRF kit): Cisbio, Cat #63ADK017PEH;
Ramos cells were starved in PRMI 1640 medium with 1% FBS for 2 hours. The starved Ramos cells were diluted with Hank's balanced salt solution to 5.0×10^6 cells/ml, seeded in a 96-well plate with 20 μL/well (1.0×10^5 cells/well), and cultured in a 5% CO2, 37° C. cell incubator. After culturing for 1 hour, the test compound was diluted with Hank's balanced salt solution in 4-fold gradient to the corresponding concentrations, and then 5 μL/well of the diluted test compound with different concentrations (the final concentrations of the test compound were 3.0, 0.75, 0.188, 0.047, 0.012, 0.0029, 0.0007 and 0.00018 μM, and the final concentration of DMSO was 0.3%, double replicate wells) or 5 μL/well of control solution (1.5% DMSO, 8 replicate wells) were added to 20 μL/well of cell culture system, which incubated together for another hour, then 5 μL/well of a mixed solution of human immunoglobulin M (final concentration was 10 μg/mL) and hydrogen peroxide (final concentration was 3.3 mM) diluted with Hank's balanced salt solution was added to the treating wells for the test compound and the control treating wells for anti-human immunoglobulin M, and 5 μL/well of Hank's balanced salt solution was added to negative control treating wells. The plate was incubated in a 5% CO2, 37° C. cell incubator for 10 minutes.
10 μL/well of cell lysis buffer was added to each well of a 96-well plate, which was mixed well and lysed at room temperature for 30 minutes. 16 μL/well of lysis buffer was pipetted to a new 384 well plate, and then added 4 μL/well of phosphorylated BTK antibody, centrifuged (1000 rpm) for 1 minute, then shaken for 1 minute, further centrifuged (1000 rpm) for 1 minute, and finally placed in a constant temperature incubator overnight. Detection was performed on the next day.
The 384 well plate incubated overnight in the constant temperature incubator was taken out to detect the luminescence signal using the Envision microwell plate reader at the […]. The reading value at 665 nm/615 nm of each well multiplied by 104 was used as the signal value of each well.
The average signal value of the wells supplemented with the mixed solution of human immunoglobulin M (final concentration was 10 μg/mL) and hydrogen peroxide (final concentration was 3.3 mM) without the test compound was regarded as the high value, and the average signal value of the wells without immunoglobulin M stimulation and without the test compound was regarded as the low value. According to the signal value in each well, the inhibition ratio (%) of each concentration of compounds was calculated, and the 205 model in XL-Fit 5.3 software (ID Business Solutions Limited) was used to obtain an IC50 value.
The inhibition ratio is calculated as follows: inhibition ratio (%)=100%−{(treating well for the test compound−negative control treating well)/(control treating well for anti-human immunoglobulin M−negative control treating well)}×100%, wherein,
Treating well for the test compound: represents the signal value of Ramos cells treated with anti-human immunoglobulin M, hydrogen peroxide and the test compound.
Control treating well for anti-human immunoglobulin M: represents the signal value of Ramos cells treated with anti-human immunoglobulin M, hydrogen peroxide but without the test compound. […]
Background: Time-resolved FRET reads energy transfer from a long-lived donor to a nearby acceptor.

phosphorylated BTK in Ramos cells, sequence (Q06187 whole entry): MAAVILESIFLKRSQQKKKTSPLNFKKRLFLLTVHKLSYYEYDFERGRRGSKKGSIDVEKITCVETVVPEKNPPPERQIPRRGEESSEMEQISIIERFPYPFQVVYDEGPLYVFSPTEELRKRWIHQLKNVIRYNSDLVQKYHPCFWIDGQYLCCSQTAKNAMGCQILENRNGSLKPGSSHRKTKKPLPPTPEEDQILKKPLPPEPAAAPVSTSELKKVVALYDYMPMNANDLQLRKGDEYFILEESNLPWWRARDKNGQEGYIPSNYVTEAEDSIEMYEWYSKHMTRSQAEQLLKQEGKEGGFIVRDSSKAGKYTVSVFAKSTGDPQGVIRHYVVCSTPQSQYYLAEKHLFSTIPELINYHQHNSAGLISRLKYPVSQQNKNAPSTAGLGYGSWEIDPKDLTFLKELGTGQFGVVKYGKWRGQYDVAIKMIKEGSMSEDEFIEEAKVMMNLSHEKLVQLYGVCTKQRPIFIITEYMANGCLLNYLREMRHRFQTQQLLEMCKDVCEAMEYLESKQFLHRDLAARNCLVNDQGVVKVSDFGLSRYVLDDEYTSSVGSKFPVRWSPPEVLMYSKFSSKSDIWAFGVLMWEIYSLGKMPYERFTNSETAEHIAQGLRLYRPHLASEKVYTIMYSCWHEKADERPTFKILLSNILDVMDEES
BTK recombinant protein, sequence (Q06187 whole entry): as above

Usually IC50 stands for the concentration at which inhibition is half-maximal. For “2-(3′-(hydroxymethyl)-5-((5-(2-methoxyethyl)-4-methyl-4,5,6,7-tetrahydropyrazolo[1,5-a]pyrazin-2-yl) amido)-1-methyl-6-oxo-1,6-dihydro-[3,4′-bispyridin]-2′-yl)-7,7-dimethyl-7,8-dihydro-2H-cyclopenta[4,5]pyrrolo[1,2-d][1,2,4]triazin-1(6H)-one optically Pure [Compound 120]”, the figures for the IC50 (at BTK recombinant protein; in experiment [1]) were 8 nM and 5 nM, respectively.
The corresponding values for `CC1Cc2cc3c(=O)n(-c4nccc(-c5cc(Nc6ccc(N7CCN(C8COC8)C[C@@H]7C)cn6)c(=O)n(C)c5)c4CO)ccn3c2C1` (mixture of isomers) [Compound 160] are 3 nM and 11 nM.
The corresponding values for `C[C@H]1CN(C2COC2)CCN1c1ccc(Nc2cc(-c3ccnc(-n4ccn5c6c(cc5c4=O)CC(C)(C)C6O)c3CO)cn(C)c2=O)nc1` (mixture of isomers) [Compound 182] are 8 nM and 34 nM.
In the same order, the values of `CC1CCc2c(cc3c(=O)n(-c4nccc(-c5cc(Nc6ccc(N7CCN(C8COC8)C[C@@H]7C)cn6)c(=O)n(C)c5)c4CO)ccn23)C1` (mixture of isomers) [Compound 187] are 14 nM and 28 nM.
Take `[2H]C(O)c1c(-c2cc(Nc3ccc(N4CCN(C5([2H])COC5)C[C@@H]4C)cn3)c(=O)n(C)c2)ccnc1-n1ccn2c3c(cc2c1=O)CC(C)(C)C3` (mixture of isomers) [Compound 101]: the IC50 at BTK recombinant protein worked out at 6 nM; in experiment [1], 2 nM.
The corresponding values for `COCCN1CCn2nc(Nc3cc(-c4ccnc(-n5ncn6c7c(cc6c5=O)CC(C)(C)C7)c4CO)cn(C)c3=O)cc2C1C` (racemic) [Compound 110, (RS)-2-(3′-(hydroxymethyl)-5-((5-(2-methoxyethyl)-4-methyl-4,5,6,7-tetrahydropyrazolo[1,5-a]pyrazin-2-yl)amido)-1-methyl-6-oxo-1,6-dihydro-[3,4′-bispyridin]-2′-yl)-7,7-dimethyl-7,8-dihydro-2H-cyclopenta[4,5]pyrrolo[1,2-d][1,2,4]triazin-1(6H)-one] are 2 nM and 2 nM.
The corresponding values for `COCCN1CCn2nc(Nc3cc(-c4ccnc(-n5nc(C)n6c7c(cc6c5=O)CC(C)(C)C7)c4CO)cn(C)c3=O)cc2C1C` (racemic) [Compound 121] are 23 nM and 21 nM.
In the same order, the values of `CC(O)CN(CCNc1ccc(Nc2cc(-c3ccnc(-n4ccn5c6c(cc5c4=O)CC(C)(C)C6)c3CO)cn(C)c2=O)nc1)C1COC1` (racemic) [Compound 179] are 19 nM and 70 nM.
`COCC(C)N1CCN(c2ccc(Nc3cc(-c4ccnc(-n5ncn6c7c(cc6c5=O)CC(C)(C)C7)c4CO)cn(C)c3=O)nc2)[C@@H](C)C1` (mixture of isomers) [Compound 219]: the IC50 is 4 nM on BTK recombinant protein and 11 nM in experiment [1].
In the same order, the values of `C[C@H]1CN2CCOCC2CN1c1ccc(Nc2cc(-c3ccnc(-n4ccn5c6c(cc5c4=O)CC(C)(C)C6)c3CO)cn(C)c2=O)nc1` (mixture of isomers) [Compound 236] are 24 nM and 4 nM.
As to `CCN(CCOC)c1ccc(Nc2cc(-c3ccnc(-n4ccn5c6c(cc5c4=O)CC(C)(C)C6)c3CO)cn(C)c2=O)nc1` [Compound 1, 2-(5-((5-(ethyl (2-methoxyethyl)amino)pyridin-2-yl)amino)-3′-(hydroxymethyl)-1-methyl-6-oxo-1,6-dihydro-[3,4′-bispyridin]-2′-yl)-7,7-dimethyl-7,8-dihydro-2H-cyclopenta[4,5]pyrrolo[1,2-a]pyrazin-1(6H)-one], the figures for the IC50 (on BTK recombinant protein; in experiment [1]) were 35 nM and 5 nM, respectively.
The corresponding values for `CCn1cc(Nc2nc(-c3ccnc(-n4ccn5c6c(cc5c4=O)CC(C)(C)C6)c3CO)cn(C)c2=O)nn1` [Compound 3] are 224 nM and 339 nM.
In the same order, the values of `CC(C)n1cc(Nc2nc(-c3ccnc(-n4ccn5c6c(cc5c4=O)CC(C)(C)C6)c3CO)cn(C)c2=O)nn1` [Compound 4] are 756 nM and 480 nM.
Consider `COCC(C)n1cc(Nc2nc(-c3ccnc(-n4ccn5c6c(cc5c4=O)CC(C)(C)C6)c3CO)cn(C)c2=O)nn1` (centres unmarked) [Compound 42], for which the half-maximal inhibitory concentration (IC50) in experiment [1] came out at 341 nM.
Same read-out and setting: to `CN1CCn2nc(Nc3cc(-c4ccnc(-n5ccn6c7c(cc6c5=O)CC(C)(C)C7)c4CO)cn(C)c3=O)cc2C1` [Compound 69, 2-(3′-(hydroxymethyl)-1-methyl-5-((5-methyl-4,5,6,7-tetrahydropyrazolo[1,5-a]pyrazin-2-yl)amino)-6-oxo-1,6-dihydro-[3,4′-bispyridin]-2′-yl)-7,7-dimethyl-7,8-dihydro-2H-cyclopenta[4,5]pyrrolo[1,2-a]pyrazin-1(6H)-one] belongs 2 nM.
In the case of `COCc1c(-c2cc(N(C)c3ccc(N4CCN(C5COC5)C[C@@H]4C)cn3)c(=O)n(C)c2)ccnc1-n1ccn2c3c(cc2c1=O)CC(C)(C)C3` [Compound 223, (S)-2-(3′-(methoxymethyl)-1-methyl-5-(methyl(5-(2-methyl-4-(oxetan-3-yl)piperazin-1-yl)pyridin-2-yl)amino)-6-oxo-1,6-dihydro-[3,4′-bispyridin]-2′-yl)-7,7-dimethyl-7,8-dihydro-2H-cyclopenta[4,5]pyrrolo[1,2-a]pyrazin-1(6H)-one], the IC50 at BTK recombinant protein is > 3000 nM.
